Reference: patent publication US9108958B2, “Selective CCR2 antagonists” (Boehringer Ingelheim International GmbH, priority 2011, dated 2015)

What was measured:
[1] = target: T1, CCR2 (Homo sapiens, UniProt P41597); assay: CCR2 receptor membrane binding assay ([125I]MCP-1, THP-1 cell membranes, SPA beads); details: THP-1 membranes, [125I]MCP-1, bound radioactivity after 8 h; read-out: hKi [nM](CCR2)
T1 construct: Membranes were prepared from THP-1 cells; endogenous in cells; host or cells: THP-1 (human acute monocytic leukaemia cells), membrane preparation
T1 sequence (P41597 1-360 isoform P41597-2): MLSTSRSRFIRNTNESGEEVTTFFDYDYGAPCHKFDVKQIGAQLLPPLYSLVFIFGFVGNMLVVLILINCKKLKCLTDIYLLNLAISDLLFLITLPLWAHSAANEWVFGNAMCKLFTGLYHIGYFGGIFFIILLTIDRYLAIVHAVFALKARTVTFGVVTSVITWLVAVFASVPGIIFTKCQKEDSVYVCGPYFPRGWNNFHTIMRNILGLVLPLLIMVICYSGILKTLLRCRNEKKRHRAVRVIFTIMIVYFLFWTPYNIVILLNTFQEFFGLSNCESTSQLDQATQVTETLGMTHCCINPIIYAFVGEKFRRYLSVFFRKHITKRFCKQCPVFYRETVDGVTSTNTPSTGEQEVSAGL
Method: The above exemplary substances have been tested for binding to CCR2 using a binding assay as outlined herein below:
THP-1 cells (human acute monocytic leukaemia cells) were cultured under standardized conditions at 37° C. and 5% CO2 in a humidified incubator. THP-1 cells were cultivated in RPMI 1640 medium (Gibco 21875) containing 1% MEM-NEAA (Gibso 11140) 2 mM L-glutamine, 1.5 g/L sodium bicarbonate, 4.5 g/L glucose, 10 mM HEPES and 1.0 mM sodium pyruvate, 90%; 10% fetal calf serum (FCS Gibco 10500-064).
Membranes were prepared from THP-1 cells. THP-1 cells were centrifuged at 300×g at 4° C. for 10 min. The cell pellet was resuspendet in Phosphate Buffer Saline (PBS, including 10 μM Pefabloc and a protease inhibitor mix ‘complete’, Boehringer Mannheim (1 tablet/50 ml)), to a concentration of […]. The membrane preparation was performed by disrupting the cells by nitrogen […] (at 50 bar, for 1 h) in a “Nitrogen Bombe” (Parr Instrument). Cell debris was removed by centrifugation (800×g at 4° C., 1 min) The supernatant was centrifuged at 80000×g, 4° C. for 30 min to sediment the cell membranes. Usually 50 mg of protein (Bradford assay) were yielded from 1×10E9 cells. The membranes were resuspendet in 25 mM HEPES, 25 mM MgCl2, 1 mM CaCl2, 10% Glycerine for storage in aliquots at −80° C. in 25 mM HEPES, 25 mM MgCl2, 1 mM CaCl2, 10% Glycerine and stored at −80° C.
(§1) Receptor Membrane Binding Assay:
Perkin Elmer NEX 332 Jod^125 MCP-1, Stock: 2200 Ci/mmol solved in 2000 μl assay buffer, stored at −20° C. THP-1 membrane were adjusted with 25 mM HEPES, pH 7.2; 5 mM MgCl2; 0.5 mM CaCl2; 0.2% BSA assay buffer to a concentration of 2.5 μg/15 μl. Amersham Biosciences PVT-WGA Beads (RPNQ0001) were adjusted with assay buffer to a concentration of 0.24 mg/30 μl. For preparation of the membrane-bead-suspension membranes and beads were incubated for 30 min at RT under rotation (60 rpm) with a ratio of 1:2. Test compounds dissolved in 100% DMSO to a concentration of 10 mM and are further diluted with 100% DMSO to 1 mM. All additional compound dilutions were obtained with assay buffer, final 1% DMSO. Compounds, membrane-bead-suspension and [^125I]MCP-1 (ca. 25000 cpm/10 μl) were incubated. Bound radioactivity was determined by scintillation counter after 8 h. Determination of affinity of test compounds (dissociation constant hKi) is calculated by iterative fitting of experimental data using the “easy sys” program, which is based on law of mass action (Schittkowski K. (1994), Numerische Mathematik, Vol. 68, 129-142).

[2] = target: T2, human CCR5 (Homo sapiens, UniProt P51681); assay: CCR5 receptor membrane binding assay ([125I]RANTES, CHO (Gα16) human CCR5 cell membranes, SPA beads); details: bound radioactivity after 6 h, read-out: hKi [nM] (CCR5)
T2 construct: expressed in transfected cells; host or cells: CHO cells co-expressing Gα16, under puromycin and zeocin selection; membrane preparation
T2 sequence (P51681 whole entry): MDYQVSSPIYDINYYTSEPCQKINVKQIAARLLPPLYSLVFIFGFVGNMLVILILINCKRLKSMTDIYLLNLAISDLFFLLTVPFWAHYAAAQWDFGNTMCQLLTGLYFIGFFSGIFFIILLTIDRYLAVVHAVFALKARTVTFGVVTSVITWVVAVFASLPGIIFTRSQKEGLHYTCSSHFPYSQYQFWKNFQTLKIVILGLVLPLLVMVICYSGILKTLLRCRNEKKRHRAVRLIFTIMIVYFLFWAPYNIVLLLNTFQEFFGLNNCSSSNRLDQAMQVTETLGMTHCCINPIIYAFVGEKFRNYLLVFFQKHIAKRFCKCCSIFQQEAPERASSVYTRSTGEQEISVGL
Method: The above exemplary substances have been tested for binding to CCR5 using a binding assay as outlined herein below:
CHO, (Gα16) human CCR5 cells were cultured under standardized conditions at 37° C. and 5% CO2 in a humidified incubator. CHO (Gα16) human CCR5 cells were cultivated in Ham's F12 (Invitrogen; #31765068) supplemented with 10 μg/ml Puromycin (Invitrogen; #A11139-03), 200 μg/ml Zeocin (Invitrogen; #45-0003) and 10% FCS (Gibco; #10500-064).
Membranes were prepared from CHO (Gα16) human CCR5 cells. Cells were cultured on […] plates (Nunc; #166508) 2-3 days before membrane preparation (usually 80-100 plates to obtain 80 mg protein).
Cells were scraped off the plates with a big scraper and washed with 2×5 ml ice cold Phosphate Buffer Saline (PBS; Invitrogen; #14040-174). Cell suspension was collected in a glass bottle (on ice). Cell suspension was harvested at 1400 rpm and 4° C. for 10 min and washed in PBS. Cell pellet was resuspended in 40 ml PBS with protease inhibitor mix ‘complete’ (Roche; #11873580001; 1 tablet/50 ml).
For gentle cell disruption the membrane preparation was performed by using a homogenizer (potter). Cells were homogenized for 5-10 min.
Membranes were centrifuged at 1000 rpm and 4° C. for 5 min Supernatant (=membrane) was harvested in a new falcon tube and remaining cell pellet homogenized again for 5-10 min with PBS with protease inhibitor mix and centrifuged. Collected supernatant was centrifuged at 40000 rpm and 4° C. for 30 min to sediment the cell membranes.
The membranes were resuspended in 25 mM HEPES, 25 mM MgCl2, 1 mM CaCl2, 10% Glycerine for storage in aliquots at −80° C. Membranes were diluted to a concentration of 5 mg/ml (Bradford Assay).
as §1
[^125I]RANTES, Stock: 1825 Ci/mmol, 25 μCi (Bio Trend #A3-AI-676) was solved in 1000 μl assay buffer (100 mM NaCl; 10 mM MgCl2; 50 mM Tris-HCl; 1 mM EDTA; 0.1% BSA, pH 7.6), stored at −20° C.
CHO (Gα16) human CCR5 membrane were solved on ice and adjusted with assay buffer to a concentration of 2.5 μg/15 μl.
Amersham Biosciences PVT-WGA Beads (GE Healthcare; #RPNQ0001) were adjusted with assay buffer to a concentration of 8 mg/ml. For preparation of the membrane-bead-suspension, membranes and beads were incubated for 30 min at RT under rotation with a ratio of 1:2.
Test compounds dissolved in 100% DMSO to a concentration of 10 mM and are further diluted with 100% DMSO to 1 mM. All additional compound dilutions were obtained with assay buffer, final 1% DMSO. 7 μl compound dilution, 45 μl membrane-bead-suspension and 10 μl [^125I]RANTES (ca. 20000 cpm/10 μl) were incubated at RT. Bound radioactivity was determined by scintillation counter after 6 h. Determination of affinity of test compounds (dissociation constant Ki) is calculated by iterative fitting of experimental data using the “easy sys” program, which is based on law of mass action (Schittkowski K. (1994), Numerische Mathematik, Vol. 68, 129-142).

Row | SMILES | Ki [1] [nM] | Ki [2] [nM]
1 | Cc1c(C(=O)N2CCC(N[C@@H]3CCOC[C@@H]3F)CC2)nc(C2CCOCC2)nc1N1CCc2ccc(C(F)(F)F)cc2C1 [Example 14] | 3 | 2090
2 | Cc1c(NC[C@H]2CCC[C@@H](c3ccc(C(F)(F)F)cc3)O2)nc(C2CCOCC2)nc1C(=O)N1CCC(N[C@@H]2CCOC[C@@H]2F)CC1 [Example 15] | 3 | 270
3 | Cc1c(NC[C@H]2CCC[C@@H](c3ccc(C(F)(F)F)cc3)O2)nc(C2CCOCC2)nc1C(=O)N1CCC(N[C@H]2CCOC[C@H]2F)CC1 [Example 16] | 1 | 210
4 | CO[C@@H]1COCC[C@@H]1NC1CCN(C(=O)c2nc(CF)nc(N3CCc4ccc(C(F)(F)F)cc4C3)c2C)CC1 [Example 17] | 2 | 180
5 | CO[C@H]1COCC[C@H]1NC1CCN(C(=O)c2nc(CF)nc(N3CCc4ccc(C(F)(F)F)cc4C3)c2C)CC1 [Example 18] | 5 | 460
6 | Cc1c(Nc2ccc(Cl)c(Cl)c2)nc(CF)nc1C(=O)N1CCC(NC2CCOCC2F)CC1 (stereo not shown) [Example 19] | 3 | 350
7 | CO[C@@H]1COCC[C@@H]1NC1CCN(C(=O)c2nc(CF)nc(Nc3ccc(Cl)c(Cl)c3)c2C)CC1 [Example 20] | 0.6 | 31
8 | CO[C@H]1COCC[C@H]1NC1CCN(C(=O)c2nc(CF)nc(Nc3ccc(Cl)c(Cl)c3)c2C)CC1 [Example 21] | 2 | 75
9 | Cc1cc(-c2nc(NC[C@H]3CCC[C@@H](c4ccc(C(F)(F)F)cc4)O3)c(C)c(C(=O)N3CCC(N[C@@H]4CCOC[C@@H]4F)CC3)n2)no1 [Example 24] | 1 | 50

Continued, values first:

Row | Ki [1] [nM] | Ki [2] [nM] | SMILES
10 | 5 | 130 | CO[C@H]1COCC[C@H]1NC1CCN(C(=O)c2nc(-c3cc(C)on3)nc(N3CCc4ccc(C(F)(F)F)cc4C3)c2C)CC1 [Example 26]
11 | 15 | 750 | Cc1cc(-c2nc(C(=O)N3CCC(N[C@H]4CCOC[C@H]4F)CC3)c(C)c(N3CCc4ccc(C(F)(F)F)cc4C3)n2)no1 [Example 27]
12 | 11 | 1350 | Cc1cc(-c2nc(C(=O)N3CCC(N[C@@H]4CCOC[C@@H]4F)CC3)c(C)c(N3CCc4ccc(C(F)(F)F)cc4C3)n2)no1 [Example 28]
13 | 2 | 53 | CO[C@@H]1COCC[C@@H]1NC1CCN(C(=O)c2nc(-c3cc(C)on3)nc(N3CCc4ccc(C(F)(F)F)cc4C3)c2C)CC1 [Example 29]
14 | 4 | 190 | CO[C@H]1COCC[C@H]1NC1CCN(C(=O)c2nc(C(F)F)nc(N3CCc4ccc(C(F)(F)F)cc4C3)c2C)CC1 [Example 34]
15 | 2 | 160 | CO[C@@H]1COCC[C@@H]1NC1CCN(C(=O)c2nc(C(F)F)nc(N3CCc4ccc(C(F)(F)F)cc4C3)c2C)CC1 [Example 35]
16 | 8 | 1370 | Cc1c(Nc2ccc(Cl)c(Cl)c2)nc(CF)nc1C(=O)N1CCC(N[C@@H]2CCOC[C@@H]2F)CC1 [Example 37]
17 | 7 | 230 | CSc1ccc([C@@H]2CCC[C@H](CNc3cc(C(=O)N4CCC(NC5CCOCC5F)CC4)nc(CF)n3)O2)cc1 (stereo partly shown) [Example 40]
